Drawing on ChEMBL document CHEMBL3769314, “4(5)-Aryl-2-C-glucopyranosyl-imidazoles as New Nanomolar Glucose Analogue Inhibitors of Glycogen Phosphorylase” (ACS Med Chem Lett, 2015), this text covers Ki and inhibition for 7 compounds.

Assay [1] has as its target T1, Glycogen phosphorylase, muscle form (Oryctolagus cuniculus, UniProt P00489).
T1 sequence (P00489 whole entry): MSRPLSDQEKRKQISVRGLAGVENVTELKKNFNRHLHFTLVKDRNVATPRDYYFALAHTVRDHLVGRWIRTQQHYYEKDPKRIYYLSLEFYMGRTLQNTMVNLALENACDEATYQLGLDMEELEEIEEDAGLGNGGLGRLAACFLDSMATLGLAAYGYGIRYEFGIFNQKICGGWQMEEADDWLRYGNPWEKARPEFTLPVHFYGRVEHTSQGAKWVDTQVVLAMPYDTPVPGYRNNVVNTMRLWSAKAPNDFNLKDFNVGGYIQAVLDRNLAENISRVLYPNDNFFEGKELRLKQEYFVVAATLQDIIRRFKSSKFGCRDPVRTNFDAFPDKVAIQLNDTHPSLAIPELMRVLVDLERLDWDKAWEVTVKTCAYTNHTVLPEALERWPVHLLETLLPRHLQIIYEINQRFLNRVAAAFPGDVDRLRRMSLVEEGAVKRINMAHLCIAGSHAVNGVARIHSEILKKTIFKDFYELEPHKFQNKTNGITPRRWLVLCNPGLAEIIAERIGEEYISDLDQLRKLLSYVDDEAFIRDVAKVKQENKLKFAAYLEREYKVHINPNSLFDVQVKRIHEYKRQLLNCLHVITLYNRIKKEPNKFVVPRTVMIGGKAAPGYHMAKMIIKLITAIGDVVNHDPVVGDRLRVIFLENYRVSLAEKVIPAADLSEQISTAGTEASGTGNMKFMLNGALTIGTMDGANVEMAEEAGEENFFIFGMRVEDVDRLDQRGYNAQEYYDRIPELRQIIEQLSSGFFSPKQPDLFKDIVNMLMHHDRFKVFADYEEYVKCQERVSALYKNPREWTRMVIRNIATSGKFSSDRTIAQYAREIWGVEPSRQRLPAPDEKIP
In words: Competitive inhibition of rabbit muscle glycogen phosphorylase-b using alpha-D-glucose-1-phosphate as substrate by Dixon plot analysis.

Assay [2] has as its target T1, Glycogen phosphorylase, muscle form.
In assay [3] the target is T2, Glycogen phosphorylase, muscle form (Oryctolagus cuniculus) (UniProt P00489).
T2 sequence (whole entry): T1 sequence (P00489 whole entry)
In words: Inhibition of rabbit muscle glycogen phosphorylase-b using alpha-D-glucose-1-phosphate as substrate at 625 uM by Dixon plot analysis.

Activity calls are given as the source filed them. The calls are words filed in the database; no cut-off is given here.

Usually Ki stands for a measure of affinity in units of concentration, obtained from inhibition or displacement.

In assay [1], `OC[C@H]1O[C@@H](c2nc(-c3ccc4ccccc4c3)cs2)[C@H](O)[C@@H](O)[C@@H]1O` registered an inhibition constant Ki of 158 µM. As to `OC[C@H]1O[C@@H](c2nc(-c3ccccc3)cs2)[C@H](O)[C@@H](O)[C@@H]1O`, the Ki in assay [1] is 310 µM. The same measure, in the same setting: the result for `OC[C@H]1O[C@@H](c2nc(-c3ccccc3)c[nH]2)[C@H](O)[C@@H](O)[C@@H]1O` reads 0.28 µM. `OC[C@H]1O[C@@H](c2nc3ccccc3s2)[C@H](O)[C@@H](O)[C@@H]1O` gave a Ki in assay [2] of 229 µM.

In the case of `OC[C@H]1O[C@@H](c2nc(-c3ccc4ccccc4c3)c[nH]2)[C@H](O)[C@@H](O)[C@@H]1O`, in assay [1], the affinity, expressed as Ki, was 0.031 µM. The compound `OC[C@H]1O[C@@H](c2cc(-c3ccccc3)n[nH]2)[C@H](O)[C@@H](O)[C@@H]1O` showed a Ki in assay [2] of 400 µM. Turning to `OC[C@H]1O[C@@H](c2cc(-c3ccccc3)on2)[C@H](O)[C@@H](O)[C@@H]1O`, the inhibition entry in assay [3] is “inactive”.
